Measured values taken from US12403118B1, “Cancer treatments using modified fatty acids and the carriers to administer them” (Zetagen Therapeutics, Inc., priority 2025, dated 2025).
Each block holds one compound with its values, some of them ahead of it.

Experiments:
MCF7 breast cancer cells = experiment: MTT assay of cell proliferation; format: cell-based; conditions: relative to no treatment
Description: The MTT Assay of Cell Proliferation: The MTT assay provides a measurement of cell proliferation (FIG. 5) in the MCF7 breast cancer cells. […] Experiments were conducted using three independent replicates and evaluated using a 1-way ANOVA. Relative to Controls at 24-hours (FIG. 5A), there was between a 6.9% and 11.94% decrease in cell number (**=p<0.0034, ***=p<0.0007, and ****=p<0.0001). Relative to Control cultures at 72-hours (FIG. 5B), there was between a 15.4% and 50.2% decrease in cell number (****=p<0.0001).
Combination Therapy Assessed Using the MTT Assay of Cell Proliferation: The MTT assay provides a measurement of cell proliferation (FIG. 5) in the MCF7 breast cancer cells. […] Control cultures were treated with 50-nM of Tomoxifen or 10-nM of Abemaciclib.

Phosphoglycerate kinase = conditions: substrate Mg-ATP; cited from earlier work
[1] = Solubility in heated non-polar solvents and fatty acid solutions; format: physicochemical; conditions: heated to at least 90° C.; for solubility in fatty acid solutions: oleic acid, linoleic acid, vegetable oil, olive oil, canola oil, castor oil; for solubility in non-polar solvents: toluene, xylene, n-octane, cyclohexane, hexane, chloroform, acetonitrile, ether
TRPA1 channels = TRPA1 channels (Homo sapiens, UniProt O75762); conditions: 20-μM Ca^2+; cited from earlier work
Chain of TRPA1 channels (O75762 whole entry): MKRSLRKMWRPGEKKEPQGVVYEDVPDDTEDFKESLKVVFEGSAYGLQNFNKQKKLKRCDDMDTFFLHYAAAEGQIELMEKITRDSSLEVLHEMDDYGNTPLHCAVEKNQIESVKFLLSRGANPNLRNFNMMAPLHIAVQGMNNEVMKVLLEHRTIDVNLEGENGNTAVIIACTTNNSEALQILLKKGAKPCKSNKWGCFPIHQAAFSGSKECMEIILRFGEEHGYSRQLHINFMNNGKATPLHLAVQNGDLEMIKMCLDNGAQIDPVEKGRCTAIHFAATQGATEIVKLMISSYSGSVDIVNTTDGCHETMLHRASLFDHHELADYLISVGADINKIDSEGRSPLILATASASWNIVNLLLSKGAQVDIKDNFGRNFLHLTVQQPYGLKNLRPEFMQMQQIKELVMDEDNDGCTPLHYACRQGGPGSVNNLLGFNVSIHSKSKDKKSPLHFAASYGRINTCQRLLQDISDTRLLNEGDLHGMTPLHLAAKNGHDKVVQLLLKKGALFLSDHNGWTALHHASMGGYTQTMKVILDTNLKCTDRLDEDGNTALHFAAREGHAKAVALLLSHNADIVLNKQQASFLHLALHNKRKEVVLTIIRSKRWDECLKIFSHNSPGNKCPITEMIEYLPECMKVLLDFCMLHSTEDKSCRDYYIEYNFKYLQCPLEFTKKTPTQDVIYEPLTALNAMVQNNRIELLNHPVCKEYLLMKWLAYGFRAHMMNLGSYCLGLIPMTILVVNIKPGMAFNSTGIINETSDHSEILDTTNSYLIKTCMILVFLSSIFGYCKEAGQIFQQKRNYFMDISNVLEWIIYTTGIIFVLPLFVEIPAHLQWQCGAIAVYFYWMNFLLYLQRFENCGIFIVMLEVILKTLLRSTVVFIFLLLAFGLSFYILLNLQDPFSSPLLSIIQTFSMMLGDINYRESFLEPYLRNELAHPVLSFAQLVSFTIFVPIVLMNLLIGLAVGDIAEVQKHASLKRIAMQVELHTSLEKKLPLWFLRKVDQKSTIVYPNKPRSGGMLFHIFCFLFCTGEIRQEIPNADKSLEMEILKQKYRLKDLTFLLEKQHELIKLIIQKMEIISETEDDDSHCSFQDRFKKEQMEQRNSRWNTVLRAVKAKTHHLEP

Compound: CCN1CCN(Cc2ccc(Nc3ncc(F)c(-c4cc(F)c5nc(C)n(C(C)C)c5c4)n3)nc2)CC1 [Abemaciclib]
- decrease in cell number (MCF7 breast cancer cells; MCF7, 24-hours, 10-nM Abemaciclib): 10.2%
- decrease in cell number (MCF7 breast cancer cells; MCF7, 72-hours, 10-nM Abemaciclib): 26.4%

Compound: Nc1ncnc2c1ncn2[C@@H]1O[C@H](COP(=O)(O)OP(=O)([O-])OP(=O)([O-])O)[C@@H](O)[C@H]1O.[Mg+2] [Mg-ATP]
- K-value (Phosphoglycerate kinase): 0.073 mM

Compound: CC/C(=C(\c1ccccc1)c1ccc(OCCN(C)C)cc1)c1ccccc1 [Tamoxifen]
- decrease in cell number (MCF7 breast cancer cells; MCF7, 24-hours, 50-nM Tamoxifen): 54%
- decrease in cell number (MCF7 breast cancer cells; MCF7, 72-hours, 50-nM Tamoxifen): 80.3%

Compound: CCCCCCCCC(OC(C)=O)C(CCCCCCCC(=O)O)OC(C)=O (stereo not shown) [lanthanum (III) tri 9,10-diacetoxy octadecanoate]
- solubility in fatty acid solutions [1]: soluble
- solubility in non-polar solvents [1]: soluble

- solubility in fatty acid solutions [1]: soluble
- solubility in non-polar solvents [1]: soluble
Compound: CCCCCCCCCCCC(=O)O [lanthanum (III) tridodeconoate]

Compound: [La] [lanthanum]
- IC50 (TRPA1 channels): 54 µM
